# According to ChEMBL document CHEMBL1153552, “Comparative in vitro pharmacodynamics of caspofungin, micafungin, and anidulafungin against germinated and nongerminated Aspergillus conidia” (2008):
# Calls of active or inactive are those of the source. No cut-off for these calls is given here. Numbered stars: 1 amine (or outer) side, 2 acyl side, 3 side chain; on linkers, the order of the positions; unused ones are H or OH. Bridge positions count the residues as written; N and C are the ends. Square brackets hold non-standard residues; d marks the D form. Peptide text beside a SMILES is read from it. * marks the point of attachment. pTerphenylCO(4''-OnC5H11) = CCCCCOc1ccc(-c2ccc(-c3ccc(C(=O)*)cc3)cc2)cc1; Orn(4R-OH,5R-OH) = O=C([C@H](C[C@@H](O)[C@@H](O)N[*:3])N[*:1])[*:2]; hTyr(3S-OH,4S-OH) = N[C@H](C(=O)O)[C@H](O)[C@@H](O)c1ccc(O)cc1; Pro(3S-OH,4S-Me) = C[C@H]1CN[C@H](C(=O)O)[C@H]1O; Hyp = O=C(O)[C@@H]1C[C@@H](O)CN1
# How the values were obtained:
# Aspergillus fumigatus [1] = experiment: Antifungal activity against nongerminated Aspergillus fumigatus assessed as lowest drug concentration that produced short, stubby and highly branched hyphae after 48 hrs by microscopic analysis; format: functional; settings: read-out: MEC
# Aspergillus fumigatus [2] = experiment: Antifungal activity against germinated Aspergillus fumigatus assessed as lowest drug concentration that produced short, stubby and highly branched hyphae after 48 hrs by microscopic analysis; format: functional; settings: read-out: MEC
# Aspergillus fumigatus [3] = experiment: Ratio of log2 of MEC for germinated Aspergillus fumigatus to log2 of MEC for nongerminated Aspergillus fumigatus; format: functional
# Aspergillus terreus [4] = experiment: Antifungal activity against nongerminated Aspergillus terreus assessed as lowest drug concentration that produced short, stubby and highly branched hyphae after 48 hrs by microscopic analysis; format: functional; settings: read-out: MEC
# Aspergillus terreus [5] = experiment: Antifungal activity against germinated Aspergillus terreus assessed as lowest drug concentration that produced short, stubby and highly branched hyphae after 48 hrs by microscopic analysis; format: functional; settings: read-out: MEC
# Aspergillus terreus [6] = experiment: Ratio of log2 of MEC for germinated Aspergillus terreus to log2 of MEC for nongerminated Aspergillus terreus; format: functional
# Aspergillus flavus [7] = experiment: Antifungal activity against nongerminated Aspergillus flavus assessed as lowest drug concentration that produced short, stubby and highly branched hyphae after 48 hrs by microscopic analysis; format: functional; settings: read-out: MEC
# Aspergillus flavus [8] = experiment: Antifungal activity against germinated Aspergillus flavus assessed as lowest drug concentration that produced short, stubby and highly branched hyphae after 48 hrs by microscopic analysis; format: functional; settings: read-out: MEC
# Aspergillus flavus [9] = experiment: Ratio of log2 of MEC for germinated Aspergillus flavus to log2 of MEC for nongerminated Aspergillus flavus; format: functional
# Aspergillus fumigatus [10] = experiment: Effect on nongerminated Aspergillus fumigatus metabolic activity assessed as drug concentration at which fungal metabolic activity occurs after 2 hrs by XTT assay; format: functional
# Aspergillus fumigatus [11] = experiment: Effect on germinated Aspergillus fumigatus metabolic activity assessed as drug concentration at which fungal metabolic activity occurs after 2 hrs by XTT assay; format: functional
# Aspergillus fumigatus [12] = experiment: Effect on Aspergillus fumigatus metabolic activity assessed number of twofold drug dilutions required for germinated fungal metabolic activity to nongerminated fungal metabolic activity; format: functional
# Aspergillus terreus [13] = experiment: Effect on nongerminated Aspergillus terreus metabolic activity assessed as drug concentration at which fungal metabolic activity occurs after 2 hrs by XTT assay; format: functional
# Aspergillus terreus [14] = experiment: Effect on germinated Aspergillus terreus metabolic activity assessed as drug concentration at which fungal metabolic activity occurs after 2 hrs by XTT assay; format: functional
# Aspergillus terreus [15] = experiment: Effect on Aspergillus terreus metabolic activity assessed number of twofold drug dilutions required for germinated fungal metabolic activity to nongerminated fungal metabolic activity; format: functional
# Aspergillus flavus [16] = experiment: Effect on nongerminated Aspergillus flavus metabolic activity assessed as drug concentration at which fungal metabolic activity occurs after 2 hrs by XTT assay; format: functional
# Aspergillus flavus [17] = experiment: Effect on germinated Aspergillus flavus metabolic activity assessed as drug concentration at which fungal metabolic activity occurs after 2 hrs by XTT assay; format: functional
# Aspergillus flavus [18] = experiment: Effect on Aspergillus flavus metabolic activity assessed number of twofold drug dilutions required for germinated fungal metabolic activity to nongerminated fungal metabolic activity; format: functional
# Aspergillus fumigatus [19] = experiment: Induction of maximal metabolic inhibition in nongerminated Aspergillus fumigatus assessed as minimal metabolic activity Ymin after 2 hrs by XTT assay; format: functional; parameters: scale not given: the % may be the effect or the level left
# Aspergillus fumigatus [20] = experiment: Induction of maximal metabolic inhibition in germinated Aspergillus fumigatus assessed as minimal metabolic activity Ymin after 2 hrs by XTT assay; format: functional; parameters: scale not given: the % may be the effect or the level left
# Aspergillus terreus [21] = experiment: Induction of maximal metabolic inhibition in nongerminated Aspergillus terreus assessed as minimal metabolic activity Ymin after 2 hrs by XTT assay; format: functional; parameters: scale not given: the % may be the effect or the level left
# Aspergillus terreus [22] = experiment: Induction of maximal metabolic inhibition in germinated Aspergillus terreus assessed as minimal metabolic activity Ymin after 2 hrs by XTT assay; format: functional; parameters: scale not given: the % may be the effect or the level left
# Aspergillus flavus [23] = experiment: Induction of maximal metabolic inhibition in nongerminated Aspergillus flavus assessed as minimal metabolic activity Ymin after 2 hrs by XTT assay; format: functional; parameters: scale not given: the % may be the effect or the level left
# Aspergillus flavus [24] = experiment: Induction of maximal metabolic inhibition in germinated Aspergillus flavus assessed as minimal metabolic activity Ymin after 2 hrs by XTT assay; format: functional; parameters: scale not given: the % may be the effect or the level left
# Aspergillus fumigatus [25] = experiment: Increase in metabolic activity of nongerminated Aspergillus fumigatus assessed as formation of short, stubby aberrant hyphae at 0.03 ug/mL after 48 hrs by XTT assay; format: functional, organism-based
# Aspergillus fumigatus [26] = experiment: Increase in metabolic activity of germinated Aspergillus fumigatus assessed as formation of short, stubby aberrant hyphae at 0.03 ug/mL after 48 hrs by XTT assay; format: functional, organism-based
# Aspergillus terreus [27] = experiment: Increase in metabolic activity of nongerminated Aspergillus terreus assessed as formation of short, stubby aberrant hyphae at 0.03 ug/mL after 48 hrs by XTT assay; format: functional, organism-based
# Aspergillus terreus [28] = experiment: Increase in metabolic activity of germinated Aspergillus terreus assessed as formation of short, stubby aberrant hyphae at 0.03 ug/mL after 48 hrs by XTT assay; format: functional, organism-based
# Aspergillus flavus [29] = experiment: Increase in metabolic activity of nongerminated Aspergillus flavus assessed as formation of short, stubby aberrant hyphae at 0.03 ug/mL after 48 hrs by XTT assay; format: functional, organism-based
# Aspergillus flavus [30] = experiment: Increase in metabolic activity of germinated Aspergillus flavus assessed as formation of short, stubby aberrant hyphae at 0.03 ug/mL after 48 hrs by XTT assay; format: functional, organism-based
# Aspergillus fumigatus [31] = experiment: Increase in metabolic activity of nongerminated Aspergillus fumigatus assessed as elongation of short, stubby aberrant hyphae at 2 ug/mL after 48 hrs by XTT assay; format: functional, organism-based
# Aspergillus fumigatus [32] = experiment: Increase in metabolic activity of germinated Aspergillus fumigatus assessed as elongation of short, stubby aberrant hyphae at 2 ug/mL after 48 hrs by XTT assay; format: functional, organism-based
# Aspergillus terreus [33] = experiment: Increase in metabolic activity of nongerminated Aspergillus terreus assessed as elongation of short, stubby aberrant hyphae at 2 ug/mL after 48 hrs by XTT assay; format: functional, organism-based
# Aspergillus terreus [34] = experiment: Increase in metabolic activity of germinated Aspergillus terreus assessed as elongation of short, stubby aberrant hyphae at 2 ug/mL after 48 hrs by XTT assay; format: functional, organism-based
# Aspergillus flavus [35] = experiment: Increase in metabolic activity of nongerminated Aspergillus flavus assessed as elongation of short, stubby aberrant hyphae at 2 ug/mL after 48 hrs by XTT assay; format: functional, organism-based
# Aspergillus flavus [36] = experiment: Increase in metabolic activity of germinated Aspergillus flavus assessed as elongation of short, stubby aberrant hyphae at 2 ug/mL after 48 hrs by XTT assay; format: functional, organism-based
# Aspergillus fumigatus [37] = experiment: Increase in metabolic activity of nongerminated Aspergillus fumigatus elongation of short, stubby aberrant hyphae at 16 ug/mL after 48 hrs by XTT assay; format: functional, organism-based
# Aspergillus fumigatus [38] = experiment: Increase in metabolic activity of germinated Aspergillus fumigatus assessed as elongation of short, stubby aberrant hyphae at 16 ug/mL after 48 hrs by XTT assay; format: functional, organism-based
# Aspergillus terreus [39] = experiment: Increase in metabolic activity of nongerminated Aspergillus terreus assessed as elongation of short, stubby aberrant hyphae at 16 ug/mL after 48 hrs by XTT assay; format: functional, organism-based
# Aspergillus terreus [40] = experiment: Increase in metabolic activity of germinated Aspergillus terreus assessed as elongation of short, stubby aberrant hyphae at 16 ug/mL after 48 hrs by XTT assay; format: functional, organism-based
# Aspergillus flavus [41] = experiment: Increase in metabolic activity of nongerminated Aspergillus flavus assessed as elongation of short, stubby aberrant hyphae at 16 ug/mL after 48 hrs by XTT assay; format: functional, organism-based
# Aspergillus flavus [42] = experiment: Increase in metabolic activity of germinated Aspergillus flavus assessed as elongation of short, stubby aberrant hyphae at 16 ug/mL after 48 hrs by XTT assay; format: functional, organism-based
# Aspergillus fumigatus [43] = experiment: Antifungal activity against nongerminated Aspergillus fumigatus assessed as absence of visual fungal growth at 128 ug/mL; format: functional, organism-based
# Aspergillus fumigatus [44] = experiment: Antifungal activity against germinated Aspergillus fumigatus assessed as absence of visual fungal growth at 128 ug/mL; format: functional, organism-based
# Aspergillus terreus [45] = experiment: Antifungal activity against nongerminated Aspergillus terreus assessed as absence of visual fungal growth at 128 ug/mL; format: functional, organism-based
# Aspergillus terreus [46] = experiment: Antifungal activity against germinated Aspergillus terreus assessed as absence of visual fungal growth at 128 ug/mL; format: functional, organism-based
# Aspergillus flavus [47] = experiment: Antifungal activity against nongerminated Aspergillus flavus assessed as absence of visual fungal growth at 128 ug/mL; format: functional, organism-based
# Aspergillus flavus [48] = experiment: Antifungal activity against germinated Aspergillus flavus assessed as absence of visual fungal growth at 128 ug/mL; format: functional, organism-based
# Aspergillus fumigatus [49] = experiment: Antifungal activity against nongerminated Aspergillus fumigatus assessed as absence of visual fungal growth at 64 ug/mL; format: functional, organism-based
# Aspergillus fumigatus [50] = experiment: Antifungal activity against germinated Aspergillus fumigatus assessed as absence of visual fungal growth at 64 ug/mL; format: functional, organism-based
# Aspergillus terreus [51] = experiment: Antifungal activity against nongerminated Aspergillus terreus assessed as absence of visual fungal growth at 64 ug/mL; format: functional, organism-based
# Aspergillus terreus [52] = experiment: Antifungal activity against germinated Aspergillus terreus assessed as absence of visual fungal growth at 64 ug/mL; format: functional, organism-based
# Aspergillus flavus [53] = experiment: Antifungal activity against nongerminated Aspergillus flavus assessed as absence of visual fungal growth at 64 ug/mL; format: functional, organism-based
# Aspergillus flavus [54] = experiment: Antifungal activity against germinated Aspergillus flavus assessed as absence of visual fungal growth at 64 ug/mL; format: functional, organism-based
structure (smiles),measurement,setting,value
"CCCCCOc1ccc(-c2ccc(-c3ccc(C(=O)N[C@H]4C[C@@H](O)[C@@H](O)NC(=O)[C@@H]5[C@@H](O)[C@@H](C)CN5C(=O)[C@H]([C@@H](C)O)NC(=O)[C@H]([C@H](O)[C@@H](O)c5ccc(O)cc5)NC(=O)[C@@H]5C[C@@H](O)CN5C(=O)[C@H]([C@@H](C)O)NC4=O)cc3)cc2)cc1 [ANIDULAFUNGIN] ({pTerphenylCO(4''-OnC5H11)}-[Orn(4R-OH,5R-OH)]T[Hyp][hTyr(3S-OH,4S-OH)]T[Pro(3S-OH,4S-Me)]; lactam 1-C)",minimal effective concentration,Aspergillus fumigatus [1],0.03 µg/mL
same,minimal effective concentration,Aspergillus fumigatus [2],0.12 µg/mL
same,Ratio,Aspergillus fumigatus [3],2
same,minimal effective concentration,Aspergillus terreus [4],0.03 µg/mL
same,minimal effective concentration,Aspergillus terreus [5],0.25 µg/mL
same,Ratio,Aspergillus terreus [6],3
same,minimal effective concentration,Aspergillus flavus [7],0.03 µg/mL
same,minimal effective concentration,Aspergillus flavus [8],0.25 µg/mL
same,Ratio,Aspergillus flavus [9],2.5
same,EC5,Aspergillus fumigatus [10],0.03 µg/mL
same,EC5,Aspergillus fumigatus [11],0.11 µg/mL
same,Ratio,Aspergillus fumigatus [12],2.4
same,EC5,Aspergillus terreus [13],0.01 µg/mL
same,EC5,Aspergillus terreus [14],0.1 µg/mL
same,Ratio,Aspergillus terreus [15],2.97
same,EC5,Aspergillus flavus [16],0.01 µg/mL
same,EC5,Aspergillus flavus [17],0.09 µg/mL
same,Ratio,Aspergillus flavus [18],2.96
same,Activity,Aspergillus fumigatus [19],26%
same,Activity,Aspergillus fumigatus [20],36%
same,Activity,Aspergillus terreus [21],30%
same,Activity,Aspergillus terreus [22],44%
same,Activity,Aspergillus flavus [23],16%
same,Activity,Aspergillus flavus [24],16%
same,Activity,Aspergillus fumigatus [25],Active
same,Activity,Aspergillus fumigatus [26],Active
same,Activity,Aspergillus terreus [27],Active
same,Activity,Aspergillus terreus [28],Active
same,Activity,Aspergillus flavus [29],Active
same,Activity,Aspergillus flavus [30],Active
same,Activity,Aspergillus fumigatus [31],Active
same,Activity,Aspergillus fumigatus [32],Active
same,Activity,Aspergillus terreus [33],Active
same,Activity,Aspergillus terreus [34],Active
same,Activity,Aspergillus flavus [35],Active
same,Activity,Aspergillus flavus [36],Active
same,Activity,Aspergillus fumigatus [37],Active
same,Activity,Aspergillus fumigatus [38],Active
same,Activity,Aspergillus terreus [39],Active
same,Activity,Aspergillus terreus [40],Active
same,Activity,Aspergillus flavus [41],Active
same,Activity,Aspergillus flavus [42],Active
same,Activity,Aspergillus fumigatus [43],inactive
same,Activity,Aspergillus fumigatus [44],inactive
same,Activity,Aspergillus terreus [45],inactive
same,Activity,Aspergillus terreus [46],inactive
same,Activity,Aspergillus flavus [47],inactive
same,Activity,Aspergillus flavus [48],inactive
same,Activity,Aspergillus fumigatus [49],inactive
same,Activity,Aspergillus fumigatus [50],inactive
same,Activity,Aspergillus terreus [51],inactive
same,Activity,Aspergillus terreus [52],inactive
same,Activity,Aspergillus flavus [53],inactive
same,Activity,Aspergillus flavus [54],inactive
